Laboratory results as given in PubChem BioAssay (NCI).
Several values for one entry are separate records, joined by “and”; a condition that tells them apart may be missing. Identical values can stand only once.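 Where inhibition never reached the appropriate level, the endpoint shown equals the highest concentration tested. Otherwise, values were interpolated linearly from a five-concentration, 48-hour dose response in 96-well plates. GI50: concentration for 50% inhibition of growth. At the TGI there is no net growth.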

Experiments:
Assay in all cases: DTP human tumour cell line panel, 48 h
786-0 renal = test system: 786-0 renal
CCRF-CEM leukemia = test system: CCRF-CEM leukemia
HCT-116 colon = test system: HCT-116 colon
HS 578T breast = test system: HS 578T breast
KM12 colon = test system: KM12 colon
MOLT-4 leukemia = test system: MOLT-4 leukemia
NCI-H226 lung = test system: NCI-H226 lung
NCI/ADR-RES ovarian = test system: NCI/ADR-RES ovarian
SF-295 CNS = test system: SF-295 CNS
SNB-75 CNS = test system: SNB-75 CNS

Row | Compound | GI50 (786-0 renal) | TGI (786-0 renal) | GI50 (CCRF-CEM leukemia) | TGI (CCRF-CEM leukemia) | GI50 (HCT-116 colon) | TGI (HCT-116 colon) | GI50 (HS 578T breast) | TGI (HS 578T breast) | GI50 (KM12 colon) | TGI (KM12 colon) | GI50 (MOLT-4 leukemia) [µM] | TGI (MOLT-4 leukemia) | GI50 (NCI-H226 lung) | TGI (NCI-H226 lung) | GI50 (NCI/ADR-RES ovarian) | TGI (NCI/ADR-RES ovarian) | GI50 (SF-295 CNS) [µM] | TGI (SF-295 CNS) | GI50 (SNB-75 CNS) [µM] | TGI (SNB-75 CNS)
1 | O=C([O][Hg][c]1ccccc1)c1ccccc1 | 1.81 µM | 3.5 µM | 0.324 µM | 2.24 µM | 1.45 µM | 2.99 µM | 1.1 µM | 5.87 µM | 11.6 µM | 24.1 µM | 1.38 | 5.7 µM | 2.41 µM | 6.18 µM | 3.32 µM | > 27.4 µM | 12.2 | 25.5 µM | 1.23 | 3.63 µM
2 | COc1ccc2nc3c([N+](=O)[O-])ccc(NCCN(C)C)c3c(N)c2c1 |  | 3.31 µM |  | 0.531 µM |  | 0.296 µM |  | 4.5 µM |  | 0.939 µM |  | 2.46 µM |  | 4.54 µM |  | 3.03 µM |  | 3.62 µM |  | 2.62 µM
3 | O=C(O)CCCCn1ccc(=O)[nH]c1=O |  | > 100 µM |  | > 100 µM |  | > 100 µM |  | > 100 µM |  | > 100 µM |  | > 100 µM |  | > 100 µM |  | > 100 µM |  | > 100 µM |  | > 100 µM
4 | COc1cc2c3c(n(CCCN4CCNCC4)c(=O)c2cc1OC)-c1cc2c(cc1C3=O)OCO2 | 0.0513 µM | 0.429 µM | 0.0118 µM | 0.389 µM | 0.281 µM | 2.42 µM | 1.26 µM | 16.2 µM | 0.633 µM | 2.24 µM | 0.005 | 0.533 µM | 0.127 µM | 3.71 µM | 2.77 µM | 11.5 µM | 0.0851 | 1.93 µM | 1.44 | 11.1 µM
5 | CC1=C/C=C/C(=O)O[C@@H]([C@H](C)[C@H](O)[C@@H](C)NC(=O)C(C)C)[C@H](C)/C=C/C(C)=C/[C@H]2C=CCC[C@@]2(C)\C=C\1 | 0.506 µM and 0.147 µM | 8.06 µM | 5.17 µM and 2.26 µM | 17.6 µM | 0.0446 µM and 0.0232 µM | 6.3 µM | 6.73 µM and 1.9 µM | > 42.3 µM | 0.518 µM and 0.343 µM | > 42.3 µM | 8.41 | 31.6 µM | 2.48 µM and 0.582 µM | 10 µM | 1.43 µM and 0.879 µM | 27.6 µM | 0.0264 | 7.5 µM |  | > 42.3 µM
6 | CNS(=O)(=O)OCC1OC(n2cnc3cncnc32)C(O)C1O (configuration not stated) | > 100 µM | > 100 µM | > 100 µM | > 100 µM | > 100 µM | > 100 µM | > 100 µM | > 100 µM | > 100 µM | > 100 µM | > 100 | > 100 µM | > 100 µM | > 100 µM | > 100 µM | > 100 µM | > 100 | > 100 µM | > 100 | > 100 µM
7 | CC1CCCC(C(=O)CC2CC(=O)NC(=O)C2)C1=O (configuration not stated) |  | > 100 µM |  | > 100 µM |  | > 100 µM |  | > 100 µM |  | > 100 µM |  | > 100 µM |  | > 100 µM |  | > 100 µM |  | > 100 µM |  | > 100 µM
8 | CCCCCCC1N=C(N)N=C(N)N1c1cccc(Cl)c1 (configuration not stated) | 0.289 µM | 13.3 µM | 0.442 µM | > 66.8 µM | 0.0747 µM | 14.3 µM | 0.871 µM | 9.22 µM | 0.421 µM | 7.26 µM | 0.94 | 17.8 µM | 1.75 µM | 24.5 µM | 75.8 µM | > 100 µM | 0.102 | 1.71 µM | 0.347 | 6.75 µM
9 | Cc1cc(Cl)nc2ccc(Cc3ccc4nc(Cl)cc(C)c4c3)cc12 |  | 30.7 µM |  | > 100 µM |  | > 100 µM |  | > 100 µM |  | > 100 µM |  | > 100 µM |  | > 100 µM |  | > 100 µM |  | > 100 µM |  | 19.8 µM
10 | CNC(=O)c1nn(C)c2c1C(C)(C)Cc1cnc(Nc3cccc(N4CCN(C)CC4)c3)nc1-2 | 0.398 µM | 14.1 µM | 0.382 µM | > 26.8 µM | 0.176 µM | 31.2 µM | 0.204 µM | 2.46 µM | 0.0514 µM | 3.43 µM | 0.236 | 10.6 µM | 0.237 µM | 9.96 µM | 2.1 µM | > 48.8 µM | 0.332 | 6.84 µM | 0.159 | 1.42 µM
11 | NC(=O)c1cccc2c(N[C@H](CN3CCC3)c3ccc(Cl)c(C(F)(F)F)c3)ncnc12 | 0.0921 µM | 1.76 µM | 0.871 µM | 12 µM | 2.32 µM | 11.7 µM | 0.191 µM | 2.65 µM | 0.885 µM | 13.3 µM | 0.257 | 3.46 µM | 1.99 µM | 16.2 µM | 2.52 µM | 14.4 µM | 0.293 | 2.88 µM | 0.0506 | 0.918 µM
12 | COC(=O)Oc1nn(C(=O)OC)c(=O)c2ccccc12 |  | > 100 µM |  | > 100 µM |  | > 100 µM |  | > 100 µM |  | > 100 µM |  | > 100 µM |  | > 100 µM |  | > 100 µM |  | > 100 µM |  | > 100 µM
13 | COc1cc2c(c(O)c1Cl)C(=O)c1c(O)cc(C[C@H](C)O)cc1[C@H]2[C@H]1c2cc(C[C@H](C)O)cc(O)c2C(=O)c2c1cc(OC)c(Cl)c2O | 3.21 µM and 30.3 µM | 75 µM and > 100 µM |  | 75 µM and > 100 µM |  | 75 µM and > 100 µM |  | 75 µM and 64.9 µM |  | 75 µM and > 100 µM |  | 75 µM and > 100 µM |  | 75 µM and 98.1 µM | 54.8 µM and 58.8 µM | 75 µM and > 100 µM |  | 5.91 µM and 53.6 µM |  | 16.4 µM and 70.3 µM
14 | COc1cc(-c2cc3ncccc3c3nc(OCCN(C)C)c4cccnc4c23)cc(OC)c1OC | 0.318 µM | 1.16 µM | 0.714 µM | 8.09 µM |  |  | 1.5 µM | 14.9 µM | 1.14 µM | > 100 µM | 0.314 | 2.71 µM | 0.623 µM | 2.46 µM | 0.383 µM | 2.1 µM | 0.533 | 2.39 µM | 0.414 | 2.2 µM
15 | COC1=CC(c2ccc[nH]2)=N/C1=C\c1[nH]c(C)c(C(=O)CCC(=O)Oc2ccc3c(c2)CCC2C3CC[C@]3(C)[C@@H](O)CC[C@@H]23)c1C (some centres not stated) | 2.04 µM | 4.35 µM | 0.304 µM | > 100 µM | 1.03 µM | 3.57 µM | 3.17 µM | > 100 µM | 3 µM | > 100 µM |  |  | 4.77 µM | > 100 µM | 4.58 µM | > 100 µM | 4 | 20.4 µM | 4.56 | 58.4 µM
